This note sets out measurements from the NIST ThermoML archive (doi:10.1016/j.tca.2015.05.015).

For series [1] the following is noted: Crystal; DTA.
The nature of series [2]: Molar enthalpy of transition or fusion. To be noted: Crystal; DSC.

Numbers after ± are expanded uncertainties.

With `CCCCCCCCCCCCCCCCCC` [octadecane], the Normal melting temperature in series [1] was determined as 25 ± 5 °C. For the same compound, the “Molar enthalpy of transition or fusion” value in series [2] worked out at 14.2 ± 0.598 kcal/mol.

As for `CCCCCCCCCCCCCCCC` [hexadecane], in series [1], the Normal melting temperature amounted to 17 ± 5 °C. For the same compound, the “Molar enthalpy of transition or fusion” value in series [2] amounted to 12 ± 0.55 kcal/mol.
